Assay results published in ChEMBL document CHEMBL1144295, “Active site directed inhibitors of replication-specific bacterial DNA polymerases” (Bioorg Med Chem Lett, 2005).
pKi: −log10 of the molar value.

Columns and labels:
[1] = target: T1, DNA polymerase III PolC-type (Bacillus subtilis (strain 168), UniProt P13267); assay: Inhibitory constant against DNA polymerases IIIC produced by Bacillus subtilis; (a)
[2] = target: T2, DNA polymerase III subunit alpha (Escherichia coli K-12, UniProt P10443); assay: Inhibition against DNA polymerases IIIE from Escherichia coli; (a); IN=<10% inhibition at highest concentration tested
T2 sequence (P10443 whole entry): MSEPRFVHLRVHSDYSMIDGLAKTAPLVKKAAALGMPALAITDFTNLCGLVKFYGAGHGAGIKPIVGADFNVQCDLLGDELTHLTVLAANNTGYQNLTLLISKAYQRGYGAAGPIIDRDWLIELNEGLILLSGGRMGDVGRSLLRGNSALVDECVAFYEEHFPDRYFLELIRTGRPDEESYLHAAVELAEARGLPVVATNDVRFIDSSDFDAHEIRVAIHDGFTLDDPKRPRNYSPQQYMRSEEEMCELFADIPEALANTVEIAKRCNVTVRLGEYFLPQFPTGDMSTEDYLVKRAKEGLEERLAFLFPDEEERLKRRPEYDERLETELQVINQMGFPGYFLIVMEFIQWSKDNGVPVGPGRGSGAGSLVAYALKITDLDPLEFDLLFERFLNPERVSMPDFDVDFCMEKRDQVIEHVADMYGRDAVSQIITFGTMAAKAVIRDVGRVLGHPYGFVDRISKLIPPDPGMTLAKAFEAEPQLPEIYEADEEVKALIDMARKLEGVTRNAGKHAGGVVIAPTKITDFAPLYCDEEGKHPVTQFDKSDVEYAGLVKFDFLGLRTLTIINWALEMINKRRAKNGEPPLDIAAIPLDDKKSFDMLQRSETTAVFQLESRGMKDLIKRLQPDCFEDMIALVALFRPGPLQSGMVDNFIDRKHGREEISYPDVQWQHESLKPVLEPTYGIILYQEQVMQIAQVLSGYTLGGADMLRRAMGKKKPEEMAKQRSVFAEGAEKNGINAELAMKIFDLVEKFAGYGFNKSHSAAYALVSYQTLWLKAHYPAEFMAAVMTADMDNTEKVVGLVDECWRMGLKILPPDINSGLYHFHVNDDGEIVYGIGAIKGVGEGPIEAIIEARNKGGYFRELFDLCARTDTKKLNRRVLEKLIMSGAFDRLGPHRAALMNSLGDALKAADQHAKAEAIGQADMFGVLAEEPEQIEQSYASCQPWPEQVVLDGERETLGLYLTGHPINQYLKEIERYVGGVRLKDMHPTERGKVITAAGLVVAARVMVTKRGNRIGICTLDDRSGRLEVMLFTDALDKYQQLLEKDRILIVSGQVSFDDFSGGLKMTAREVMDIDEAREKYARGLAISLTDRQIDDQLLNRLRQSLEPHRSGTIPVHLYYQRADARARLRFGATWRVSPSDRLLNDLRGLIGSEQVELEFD

[3] = target: T3, DNA polymerase III subunit alpha (Bacillus subtilis (strain 168), UniProt O34623); assay: Inhibition of DNA polymerases IIIE from Bacillus subtilis; (a); IN=<10% inhibition at highest concentration tested
T3 sequence (O34623 whole entry): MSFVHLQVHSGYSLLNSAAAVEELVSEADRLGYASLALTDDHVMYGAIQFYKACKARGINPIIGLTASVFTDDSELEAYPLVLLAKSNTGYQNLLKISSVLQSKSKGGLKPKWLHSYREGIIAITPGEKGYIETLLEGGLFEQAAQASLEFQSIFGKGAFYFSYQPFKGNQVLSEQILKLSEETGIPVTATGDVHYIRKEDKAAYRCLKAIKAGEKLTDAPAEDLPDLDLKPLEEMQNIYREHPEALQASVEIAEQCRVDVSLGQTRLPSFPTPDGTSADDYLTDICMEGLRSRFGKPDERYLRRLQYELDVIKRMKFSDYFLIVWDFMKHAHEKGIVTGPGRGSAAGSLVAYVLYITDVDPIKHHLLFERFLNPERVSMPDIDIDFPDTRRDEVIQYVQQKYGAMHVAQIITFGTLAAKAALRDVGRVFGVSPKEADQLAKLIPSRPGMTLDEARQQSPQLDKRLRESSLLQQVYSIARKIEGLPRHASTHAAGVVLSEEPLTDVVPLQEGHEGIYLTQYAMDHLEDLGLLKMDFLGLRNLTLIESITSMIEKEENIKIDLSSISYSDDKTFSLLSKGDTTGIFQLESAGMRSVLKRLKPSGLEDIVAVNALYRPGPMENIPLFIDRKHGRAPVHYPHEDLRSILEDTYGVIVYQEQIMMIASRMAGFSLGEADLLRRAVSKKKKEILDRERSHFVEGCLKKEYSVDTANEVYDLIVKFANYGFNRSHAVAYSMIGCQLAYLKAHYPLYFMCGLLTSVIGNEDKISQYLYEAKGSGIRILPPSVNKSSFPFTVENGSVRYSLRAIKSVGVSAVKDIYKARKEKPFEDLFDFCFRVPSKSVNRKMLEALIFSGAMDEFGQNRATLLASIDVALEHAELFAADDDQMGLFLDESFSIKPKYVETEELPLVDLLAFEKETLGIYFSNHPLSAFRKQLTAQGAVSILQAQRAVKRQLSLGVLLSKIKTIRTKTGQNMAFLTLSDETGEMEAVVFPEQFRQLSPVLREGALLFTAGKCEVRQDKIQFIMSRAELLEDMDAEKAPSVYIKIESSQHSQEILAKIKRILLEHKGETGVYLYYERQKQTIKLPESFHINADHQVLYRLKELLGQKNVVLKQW

[4] = target: T1, DNA polymerase III PolC-type; assay: Inhibition of DNA polymerases IIIC produced by Bacillus subtilis; (a); IN=<10% inhibition at highest concentration tested
[5] = target: T2, DNA polymerase III subunit alpha; assay: Inhibitory constant against DNA polymerases IIIE from Escherichia coli; (a)

T1 sequence (P13267 whole entry): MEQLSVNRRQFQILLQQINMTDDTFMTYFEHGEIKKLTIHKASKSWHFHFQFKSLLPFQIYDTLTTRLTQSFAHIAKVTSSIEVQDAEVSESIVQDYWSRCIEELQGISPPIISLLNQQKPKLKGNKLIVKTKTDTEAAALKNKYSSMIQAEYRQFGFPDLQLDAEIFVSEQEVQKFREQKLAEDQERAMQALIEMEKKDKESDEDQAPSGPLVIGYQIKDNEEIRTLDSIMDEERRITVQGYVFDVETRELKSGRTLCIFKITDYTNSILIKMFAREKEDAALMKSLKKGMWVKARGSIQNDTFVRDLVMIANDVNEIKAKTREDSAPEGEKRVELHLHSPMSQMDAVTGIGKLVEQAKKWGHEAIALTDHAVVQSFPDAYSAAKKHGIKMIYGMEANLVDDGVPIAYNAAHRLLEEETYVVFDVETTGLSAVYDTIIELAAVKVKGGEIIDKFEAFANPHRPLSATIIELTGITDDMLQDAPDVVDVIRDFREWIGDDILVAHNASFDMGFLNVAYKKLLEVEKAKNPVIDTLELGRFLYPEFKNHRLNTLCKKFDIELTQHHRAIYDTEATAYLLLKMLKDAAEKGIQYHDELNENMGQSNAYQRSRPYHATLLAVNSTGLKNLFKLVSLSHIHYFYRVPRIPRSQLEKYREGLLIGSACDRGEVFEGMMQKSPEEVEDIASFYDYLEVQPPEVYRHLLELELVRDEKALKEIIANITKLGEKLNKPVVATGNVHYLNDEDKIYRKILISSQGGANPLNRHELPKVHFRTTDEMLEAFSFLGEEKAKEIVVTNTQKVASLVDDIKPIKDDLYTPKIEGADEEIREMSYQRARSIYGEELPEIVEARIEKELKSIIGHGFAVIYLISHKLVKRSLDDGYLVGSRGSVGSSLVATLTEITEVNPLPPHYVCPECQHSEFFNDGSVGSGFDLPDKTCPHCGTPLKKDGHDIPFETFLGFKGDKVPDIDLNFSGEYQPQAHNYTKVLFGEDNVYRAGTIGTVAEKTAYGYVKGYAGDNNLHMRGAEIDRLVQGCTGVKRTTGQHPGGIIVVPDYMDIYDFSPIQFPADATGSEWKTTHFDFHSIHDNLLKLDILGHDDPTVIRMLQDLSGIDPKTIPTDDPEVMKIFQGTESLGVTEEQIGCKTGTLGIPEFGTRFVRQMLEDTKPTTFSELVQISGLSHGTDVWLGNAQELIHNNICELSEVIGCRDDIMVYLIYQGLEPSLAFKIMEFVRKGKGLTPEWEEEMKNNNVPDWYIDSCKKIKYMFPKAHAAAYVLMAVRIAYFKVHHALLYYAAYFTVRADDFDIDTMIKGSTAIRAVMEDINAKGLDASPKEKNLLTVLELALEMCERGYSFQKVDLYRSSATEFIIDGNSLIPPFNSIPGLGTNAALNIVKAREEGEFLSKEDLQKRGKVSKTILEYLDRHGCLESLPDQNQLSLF

Row | Structure (SMILES) | pKi [1] | further results
1 | CCc1cc(Nc2nc(O)c3[nH]cnc3n2)ccc1C | 5.57 | inhibition [2]: < 10%
2 | CCc1cc(Nc2nc(O)c3c(ncn3CCCCO)n2)ccc1C |  | inhibition [3]: < 10%; inhibition [2]: < 10%
3 | CS(=O)(=O)CCCCCn1cnc2nc(NCc3ccc(Cl)c(Cl)c3)nc(O)c21 | 6.55 | 
4 | CCc1cc(Nc2nc(O)c3ncn(CCCCO)c3n2)ccc1C |  | inhibition [3]: < 10%; inhibition [2]: < 10%; inhibition [4]: < 10%
5 | CCOCCn1cnc2c(=O)[nH]c(NCc3ccc(Cl)c(Cl)c3)nc21 | 3.94 | 
6 | CCOC(=O)CCCn1cnc2nc(NCc3ccc(Cl)c(Cl)c3)[nH]c(=O)c21 | 6.82 | 
7 | CC(C)C(=O)OCCCCCn1cnc2nc(NCc3ccc(Cl)c(Cl)c3)[nH]c(=O)c21 | 6.43 | 
8 | COCCCCCn1cnc2nc(NCc3ccc(Cl)c(Cl)c3)[nH]c(=O)c21 | 7.15 | 
9 | CSCCCCCn1cnc2nc(NCc3ccc(Cl)c(Cl)c3)[nH]c(=O)c21 | 6.64 | 
10 | OCCCCn1cnc2c(O)nc(NCc3ccc(Cl)c(Cl)c3)nc21 | 3.15 | 
11 | O=C(O)CCCn1cnc2c(=O)[nH]c(NCc3ccc(Cl)c(Cl)c3)nc21 | 4.55 | 
12 | O=C(O)CCCn1cnc2nc(NCc3ccc(Cl)c(Cl)c3)nc(O)c21 | 6.77 | 
13 | CCOC(=O)CCCn1cnc2c(O)nc(NCc3ccc(Cl)c(Cl)c3)nc21 | 3.08 | 
14 | C[S+]([O-])CCCCCn1cnc2nc(NCc3ccc(Cl)c(Cl)c3)nc(O)c21 (stereo unspecified) | 7.03 | 
15 | Oc1[nH]c(NCc2ccc(Cl)c(Cl)c2)nc2ncnc1-2 | 6.14 | 
16 | C[C@@H](O)CCCCn1cnc2nc(NCc3ccc(Cl)c(Cl)c3)[nH]c(=O)c21 | 7.28 | 
17 | O=c1[nH]c(NCc2ccc(Cl)c(Cl)c2)nc2ncn(CCOCCO)c12 | 6.43 | 
18 | CCOCCn1cnc2nc(NCc3ccc(Cl)c(Cl)c3)[nH]c(=O)c21 | 6.48 | 
19 | CC(=O)O[C@H](C)CCCCn1cnc2nc(NCc3ccc(Cl)c(Cl)c3)[nH]c(=O)c21 | 7.10 | 
20 | O=c1cc(NCc2ccc(Cl)c(CCl)c2)[nH]c(=O)[nH]1 | 6.38 | 
21 | CCc1cc(Nc2cc(=O)[nH]c(=O)[nH]2)ccc1C | 6.51 | pKi [5]: < 3.49
